Assay results: patent US20230118142A1, “AGENTS FOR USE IN THE TREATMENT OF TISSUE DAMAGE” (UCL BUSINESS LTD, priority 2020, published 2023)

Legend:
Design in all cases: The final concentrations were 0.73 μM native pentameric CRP; from tissue
CRP [1] = target: T1, CRP (Homo sapiens, UniProt P02741); assay: Roche immunoturbidimetric assay: pure CRP; assay type: binding; conditions: pure CRP in TC buffer; read-out: IC50 (μM), SD; inhibition of Roche CRP immunoreactivity
T1 sequence (P02741 19-224): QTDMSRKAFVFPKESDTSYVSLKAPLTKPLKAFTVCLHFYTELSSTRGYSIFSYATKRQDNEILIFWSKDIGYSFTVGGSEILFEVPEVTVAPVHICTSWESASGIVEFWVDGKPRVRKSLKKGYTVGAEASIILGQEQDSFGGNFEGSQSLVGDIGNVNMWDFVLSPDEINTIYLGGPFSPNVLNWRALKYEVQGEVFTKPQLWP
Procedure: (i) Human CRP at ˜90 μg/ml (3.9 μM monomer or 0.78 μM pentamer) in TC buffer was prepared from a stock solution; a 75 μl aliquot was used in the assay.
(ii) Compounds were prepared from stock solutions at up to 10 mM in TC (labelled S1). They were serially diluted with TC buffer (100 μl ligand+200 μl TC) to provide up to 9 dilutions, S2-S10. A TC buffer control (S0) was included in each assay.
(iii) A 15 μl volume of each ligand solution was incubated with 75 μl of CRP for 1 h at 37° C. The final concentrations were CRP pentamer=0.73 μM, ligands S1-S10=625-0.03 μM, corresponding to ligand:CRP pentamer ratios of 853-0.04.
(iv) CRP concentrations were measured by the Roche microparticle-enhanced immunoturbidimetric assay (10) on the COBAS MIRA autoanalyser, and results expressed as a percentage of the CRP control.
(v) Data were plotted using Sigmaplot (V14) using the 4 parameter logistic curve y=min+(max−min)/(1+(x/EC50)^−Hill slope) to calculate EC50.
(vii) All compounds were assayed in comparison with a highly purified preparation of BPC8, that was prepared by Carbogen AMCIS AG, dissolved in sterile water and diluted into TC buffer as required.
The immunoturbidimetric CRP assay on the Roche COBAS MIRA Plus autoanalyser, utilises two different sized microparticles that are covalently coupled with two different monoclonal antibodies, which recognise different CRP epitopes. The assay was developed by Roche for clinical measurement of CRP serum and plasma with high sensitivity and a very wide dynamic range. Serendipitously, one of the two antibodies binds to an epitope present on the ligand binding B-face of CRP. Thus, when the binding pocket is occupied by ligand and, especially, when the B-face is occluded by the B-face to B-face interaction of two native CRP pentamers produced by cross linking via our unique bivalent ligands, the assay fails to detect the CRP. In contrast, the CRP is all detected and assayed normally by other assays that disrupt the crosslinking and/or use antibodies which recognise different, non-occluded, epitopes. Inhibition of CRP recognition in the Roche assay is thus a convenient tool to monitor the efficacy and potency of complex formation between our unique ligands and CRP.

CRP [2] = target: T1, CRP; assay: Size exclusion chromatography of CRP/ligand cross linking; assay type: binding; conditions: CRP/ligand complex re-chromatographed in absence of free ligand
Procedure: (i) Ligands were diluted to 0.5 mM in TC buffer from up to 10 mM stocks. Serial dilutions were prepared as required. […]
(iii) The complex was chromatographed on a Superdex200 column (10/300 GL; 24 ml bed volume), connected to the ÅKTA100 Explorer HPLC system, and equilibrated and eluted in TC buffer at 0.5 ml/min. Eluates were monitored at 280 nm and fractions (0.5 ml) collected as required.
Size exclusion chromatography on a Superdex 200 column equilibrated and eluted with TC buffer pH 8.0, and calibrated with standard globular marker proteins and with human CRP, the native CRP pentamer (Mr 115 kDa) eluted at 13.9 ml (range 13.7-14.0 ml, n=10).

CRP [3] = target: T1, CRP; assay: Immobilised phosphocholine plate assay (125I-CRP binding); conditions: read-out: IC50 for inhibition of 125I-CRP binding to immobilised phosphocholine
Procedure: (i) Phosphocholine was immobilised on Greiner NHS-activated microtitre plates by incubation with 4-aminophenyl-1-phosphocholine. Remaining active sites were blocked by incubation with 4% w/v BSA in TC buffer (TCB).
(ii) Human CRP at 1 μg/ml in TC buffer was spiked with ^125I-labelled CRP to provide 10^6 cpm/ml.
(iii) Compounds were prepared from up to 10 mM stock solutions by dilution in TC buffer to 0.5 mM (labelled S1). Serial dilutions were prepared by diluting 100 μl ligand solution with 200 μl TC buffer (S2-S10). A ligand-free control was also used (SO, TC only).
(iv) A 100 μl volume of CRP solution was incubated with 10 μl of each compound (S1-S10, SO) for 1 h at room temperature without stirring, to provide final ligand concentrations across the range 45.5 μM-6.9 nM with a ligand:CRP monomer molar ratio of 1151-0.06. In some cases, single fixed ligand concentrations were also assayed in comparison with PC.
(v) A 100 μl volume of each CRP-ligand mixture was added to the plate wells and incubated for 2 h at room temperature. Solutions were then discarded and the plates washed with TCB buffer. Bound radioactivity was measured (1 min counts) using a gamma counter (Perkin Elmer Wizard 2470).
(vi) Data were plotted with Sigmaplot v14 software using the 4-parameter logistic curve y=min+(max−min)/(1+(x/EC50)^−Hill slope) to calculate IC50.

Row | IC50 (CRP [1]) | SMILES | Stable to rechromatography (CRP [2]) | IC50 (CRP [3])
1 | 0.97 µM | O=C(NC(C(=O)O)[C@H]1CN2CCC1CC2)C(=O)NC(C(=O)O)[C@H]1CN2CCC1CC2 (stereo partly drawn) [Compound P1d-0, 2-[(3R)-1-azabicyclo[2.2.2]octan-3-yl]-2-[({[(3R)-1-azabicyclo[2.2.2]octan-3-yl](carboxy)methyl}carbamoyl)formamido]acetic acid] | – | –
2 | > 400 µM | O=C(CC(=O)NC(C(=O)O)[C@H]1CN2CCC1CC2)NC(C(=O)O)[C@H]1CN2CCC1CC2 (stereo partly drawn) [Compound P1d-1, 2-[(3R)-1-azabicyclo[2.2.2]octan-3-yl]-2-(2-{[[(3R)-1-azabicyclo[2.2.2]octan-3-yl](carboxy)methyl]carbamoyl}acetamido)acetic acid] | – | –
3 | > 400 µM | O=C(CCCC(=O)NC(C(=O)O)[C@H]1CN2CCC1CC2)NC(C(=O)O)[C@H]1CN2CCC1CC2 (stereo partly drawn) [Compound P1d-3, 2-[(3R)-1-azabicyclo[2.2.2]octan-3-yl]-2-(4-{[[(3R)-1-azabicyclo[2.2.2]octan-3-yl](carboxy)methyl]carbamoyl}butanamido)acetic acid] | – | –
4 | > 400 µM | O=C(CCCCCC(=O)NC(C(=O)O)[C@H]1CN2CCC1CC2)NC(C(=O)O)[C@H]1CN2CCC1CC2 (stereo partly drawn) [Compound P1d-5, 2-[(3R)-1-azabicyclo[2.2.2]octan-3-yl]-2-(6-{[[(3R)-1-azabicyclo[2.2.2]octan-3-yl](carboxy)methyl]carbamoyl}hexanamido)acetic acid] | – | –
5 | 9.92 µM | O=C(CCCCCCC(=O)NC(C(=O)O)[C@H]1CN2CCC1CC2)NC(C(=O)O)[C@H]1CN2CCC1CC2 (stereo partly drawn) [Compound P1d-6, 2-[(3R)-1-azabicyclo[2.2.2]octan-3-yl]-2-[7-({[(3R)-1-azabicyclo[2.2.2]octan-3-yl](carboxy)methyl}carbamoyl)heptanamido]acetic acid] | – | –
6 | > 400 µM | O=C(CCCCCCCC(=O)NC(C(=O)O)[C@H]1CN2CCC1CC2)NC(C(=O)O)[C@H]1CN2CCC1CC2 (stereo partly drawn) [Compound P1d-7, 2-[(3R)-1-azabicyclo[2.2.2]octan-3-yl]-2-(8-{[[(3R)-1-azabicyclo[2.2.2]octan-3-yl](carboxy)methyl]carbamoyl}octanamido)acetic acid] | – | –
7 | 26.2 µM | O=C(NC(C(=O)O)[C@H]1CN2CCC1CC2)NC(C(=O)O)[C@H]1CN2CCC1CC2 (stereo partly drawn) [Compound P2B-G, 2-[[-carboxy-[(3R)-quinuclidin-3-yl]methyl]carbamoylamino]-2-[(3R)-quinuclidin-3-yl]acetic acid] | – | –
8 | 127 µM | CN(C)CCOP(=O)(O)OCCCCCCCCOP(=O)(O)OCCN(C)C [Dm-BPC8, bis(2-(dimethylamino)ethyl) octane-1,8-diyl bis(hydrogen phosphate), reference compound] | – | –
9 | 1.08 µM | O=P(O)(OCCCCCCOP(=O)(O)O[C@@H]1CN2CCC1CC2)O[C@@H]1CN2CCC1CC2 [Pk-025, Hexane-1,6-diyl di(S)-quinuclidin-3-yl) bis(hydrogen phosphate] | – | 280 nM
10 | – | O=P(O)(OCCCCCCCOP(=O)(O)OC1CN2CCC1CC2)OC1CN2CCC1CC2 [Pk-026, Heptane-1,7-diyl di(S)-quinuclidin-3-yl) bis(hydrogen phosphate] | – | 180 nM
11 | – | O=P(O)(OCCCCCCCCCCOP(=O)(O)O[C@@H]1CN2CCC1CC2)O[C@@H]1CN2CCC1CC2 [Pk-027, Decane-1,10-diyl di(S)-quinuclidin-3-yl) bis(hydrogen phosphate] | – | 180 nM
12 | – | O=P(O)(OCCCCCCCCCOP(=O)(O)O[C@@H]1CN2CCC1CC2)O[C@@H]1CN2CCC1CC2 [Pk-028, Nonane-1,9-diyl di(S)-quinuclidin-3-yl) bis(hydrogen phosphate] | – | 160 nM
13 | 0.72 µM | CC(C)(C/C=C/CC(C)(C)COP(=O)(O)O[C@@H]1CN2CCC1CC2)COP(=O)(O)O[C@@H]1CN2CCC1CC2 [Pk-032, di((S)-1-azabicyclo[2.2.2]octan-3-yl) (E)-2,2,7,7-tetramethyloct-4-ene-1,8-diyl bis(hydrogen phosphate)] | – | –
14 | 0.59 µM | CC(C)(CCCCC(C)(C)COP(=O)(O)O[C@@H]1CN2CCC1CC2)COP(=O)(O)O[C@@H]1CN2CCC1CC2 [Pk-033, [(3S)-1-azabicyclo[2.2.2]octan-3-yloxy]({[8-({[(3S)-1-azabicyclo[2.2.2]octan-3-yloxy](hydroxy)phosphoryl}oxy)-2,2,7,7-tetramethyloctyl]oxy})phosphinic acid] | – | –

Row | SMILES | IC50 (CRP [1]) | Stable to rechromatography (CRP [2]) | IC50 (CRP [3])
15 | O=C(CC(c1ccccc1)C(CC(=O)NC(C(=O)O)[C@H]1CN2CCC1CC2)c1ccccc1)NC(C(=O)O)[C@H]1CN2CCC1CC2 (single isomer, unassigned) [P2B-D peak1] | 0.66 µM | Yes | –
16 | O=C(CCC(=O)NC(C(=O)O)[C@H]1CN2CCC1CC2)NC(C(=O)O)[C@H]1CN2CCC1CC2 (stereo partly drawn) [Compound P1d-2, 2-[(3R)-1-azabicyclo[2.2.2]octan-3-yl]-2-[3-({[(3R)-1-azabicyclo[2.2.2]octan-3-yl](carboxy)methyl}carbamoyl)propanamido]acetic acid] | < 2 µM | Yes | –
17 | O=C(CCCCC(=O)NC(C(=O)O)C1CN2CCC1CC2)NC(C(=O)O)C1CN2CCC1CC2 [Compound P1d-4, 2-[(3R)-1-azabicyclo[2.2.2]octan-3-yl]-2-(8-{[[(3R)-1-azabicyclo[2.2.2]octan-3-yl](carboxy)methyl]carbamoyl}pentamido)acetic acid] | < 2 µM | Partial | –
18 | C[N+]12CCC(CC1)[C@@H](C(NC(=O)CCCCC(=O)NC(C(=O)O)[C@H]1C[N+]3(C)CCC1CC3)C(=O)O)C2 (stereo partly drawn) [Compound P1d-4A, (3R)-3-{carboxy[5-({carboxy[(3R)-1-methyl-1-azabicyclo[2.2.2]octan-1-ium-3-yl]methyl}carbamoyl)pentanamido]methyl}-1-methyl-1-azabicyclo[2.2.2]octan-1-ium] | 1.43 µM | – | –
19 | O=C(Cc1ccc(CC(=O)NC(C(=O)O)[C@H]2CN3CCC2CC3)cc1)NC(C(=O)O)[C@H]1CN2CCC1CC2 (stereo partly drawn) [Compound P2B-C, 2-[[2-[4-[2-[[carboxy-[(3R)-quinuclidin-3-yl]methyl]amino]-2-oxo-ethyl]phenyl]acetyl]amino]-2-[(3R)-quinuclidin-3-yl]acetic acid] | 2.69 µM | – | –
